Measured values published in patent publication EP2457572A1, “Use of atomic quantum clusters (aqcs) in the prevention of cell proliferative disorders, viral infections and autoimmune diseases” (Universidade De Santiago De Compostela, priority 2010, dated 2012).

Test system: HL-60 cells
Experiment: Activated caspase 3 by flow cytometry (PE Active Caspase-3 Apoptosis kit)
Assay type: cell-based
Conditions: camptothecin 30µM, non treated control 7.4 %
Protocol: HL-60 cells were incubated with the various treatments. […] (It is well known that caspase 3 is the main effector of apoptosis mediated by caspase activation).

## CC[C@@]1(O)C(=O)OCc2c1cc1n(c2=O)Cc2cc3ccccc3nc2-1 [camptothecin]
  cells positive for activated caspase 3: 32.4%
